Test results from patent US5591741A, “Fungicidal spiroheterocyclic derivatives” (American Cyanamid Company, priority 1993, dated 1997).

Columns and labels:
Plasmopara viticola = assay: Antisporulant activity against vine downy mildew (PVA); assay type: in vivo; details: vine leaves, antisporulant foliar spray, 600 ppm, 750 l/ha
Summary of the method: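 Cabernet Sauvignon vines (~8 cm) inoculated on lower leaf surfaces with 5×10^4 zoosporangia/ml, held 24 h at 21° C high humidity then 24 h glasshouse. Infected leaves sprayed underside with 600 ppm compound in 1:1 water/acetone, 0.04% Tween 20, 750 l/ha; 96 h glasshouse, 24 h humidity. Sporulating leaf area rated versus control.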

Alternaria solani = assay: Activity against tomato early blight (AS); assay type: in vivo; details: Table VI; tomato seedlings, contact prophylactic foliar spray, 4 days
Summary of the method: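 Foliar contact prophylactic spray on tomato seedlings (cv Outdoor Girl, second true leaf expanded) in acetone/water 50:50 with 0.04% Tween 20; 24 h at 20° C, 40% R.H., then inoculation with 10^4 spores/ml A. solani conidia. Kept moist at 21° C; lesion cover rated 4 days post-inoculation against untreated or diluent-sprayed controls.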

Phytophthora infestans = assay type: in vivo; details: tomato, direct protectant foliar spray
Rhizoctonia solani = assay: Activity against Rhizoctonia in-vitro (RSI); assay type: cell-based; details: 10 ppm, 10 days, 20° C., mycelial growth
Summary of the method: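 R. solani mycelial fragments (5×10^4/ml) in half-strength Potato Dextrose Broth with compound added from acetone to 10 ppm final. Mycelial growth assessed after 10 days at 20° C, rated against untreated or diluent control.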

Venturia inaequalis = assay: Activity against apple scab in-vitro (VII); assay type: cell-based; details: 10 ppm, 10 days, 20° C., mycelial growth
Summary of the method: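 Compound in acetone was tested at 10 ppm final in half-strength Potato Dextrose Broth inoculated with V. inaequalis mycelial fragments and spores at 5×10^4 propagules/ml. After 10 days at 20° C, mycelial growth was rated against untreated or diluent controls.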

Pyricularia oryzae = assay type: in vivo; details: rice seedlings, direct therapeutic foliar spray, 600 ppm, 4-5 days
Botrytis cinerea = assay: Direct protectant activity against broad bean grey mould (BCB); assay type: in vivo; details: direct protectant foliar spray, 600 ppm, 4 days
Summary of the method: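 Broad bean plants (cv The Sutton, two leaf pairs) sprayed on upper leaf surfaces at 600 ppm, then inoculated 24 h later with 10^6 conidia/ml. Kept 4 days at 22 °C, high humidity; disease control rated from % leaf area with lesions against untreated or diluent controls.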

[1] = test system: Pseudocercosporella herpotrichoides; assay: Activity against wheat eyespot in-vitro (PHI); assay type: cell-based; details: 10 ppm, 10 days, 20° C., mycelial growth
Summary of the method: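 P. herpotrichoides mycelial fragments (5×10^4/ml) grown in half-strength PDB with compound at 10 ppm final, added from acetone. Incubated 10 days at 20 °C; mycelial growth rated against untreated or diluent controls.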

Leptosphaeria nodorum = assay: Activity against wheat leafspot (LN); assay type: in vivo; details: direct therapeutic foliar spray, 600 ppm, 6-8 days
Summary of the method: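 Wheat cv Norman at single-leaf stage spray-inoculated with 1.5×10^6 conidia/ml, held 24 h at high humidity, then sprayed therapeutically with test compound at 600 ppm. Kept 6-8 days at 22° C, 70% humidity; lesion density per leaf rated against untreated or diluent-sprayed controls.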

[2] = test system: Erysiphe graminis f.sp. hordei; assay: Direct protectant activity against barley powdery mildew (EGP); assay type: in vivo; details: direct protectant foliar spray, 8 days
Summary of the method: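 Barley seedlings (cv Golden Promise, single-leaf stage) were foliar-sprayed, held 24 h at 18 °C/40% RH, then dusted with mildew conidia. After 8 days at 18 °C/40% RH, sporulating leaf area was scored as a rating against untreated or diluent-sprayed controls.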

[3] = test system: Erysiphe graminis f.sp. hordei; assay: Activity against barley powdery mildew, direct therapeutic (EGT); assay type: in vivo; details: direct therapeutic foliar spray, 600 ppm, up to 7 days
Summary of the method: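 Barley seedlings (cv. Golden Promise, single-leaf stage) were dusted with mildew conidia one day before a therapeutic foliar spray of 600 ppm compound. Plants were kept at 18 °C and 40% humidity for up to 7 days, and sporulating leaf area was rated against untreated or diluent-sprayed controls.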

| Structure (SMILES) | disease control rating PVA (Plasmopara viticola) | disease control rating AS (Alternaria solani) | disease control rating PIP (Phytophthora infestans) | disease control rating RSI (Rhizoctonia solani) | disease control rating VII (Venturia inaequalis) | disease control rating PO (Pyricularia oryzae) | disease control rating BCB (Botrytis cinerea) | disease control rating PHI [1] | disease control rating LN (Leptosphaeria nodorum) | disease control rating EGP [2] | disease control rating EGT [3] |
| --- | --- | --- | --- | --- | --- | --- | --- | --- | --- | --- | --- |
| CCN(CC)C1COC2(CCC(C(C)(C)C)CC2)C1 (stereo not shown) [Compound 68] | 0 (less than 50% disease control) | 0 (less than 50% disease control) | 0 (less than 50% disease control) | 0 (less than 50% disease control) | 1 (about 50-80% disease control) | 1 (about 50-80% disease control) | 0 (less than 50% disease control) | 0 (less than 50% disease control) | 0 (less than 50% disease control) | 2 (greater than 80% disease control) | 2 (greater than 80% disease control) |
| CCCCCCN(CCCCCC)C1COC2(CCC(C(C)(C)C)CC2)C1 (stereo not shown) [Compound 69] | 0 (less than 50% disease control) | 0 (less than 50% disease control) | 0 (less than 50% disease control) | 0 (less than 50% disease control) | 2 (greater than 80% disease control) | 1 (about 50-80% disease control) | 0 (less than 50% disease control) | 0 (less than 50% disease control) | 0 (less than 50% disease control) | 2 (greater than 80% disease control) | 2 (greater than 80% disease control) |
| CC(C)(C)C1CCC2(CC1)CC(NC1CCCC1)CO2 (stereo not shown) [Compound 70] | 0 (less than 50% disease control) | 1 (about 50-80% disease control) | 2 (greater than 80% disease control) | 0 (less than 50% disease control) | 1 (about 50-80% disease control) | 0 (less than 50% disease control) | 0 (less than 50% disease control) | 0 (less than 50% disease control) | 0 (less than 50% disease control) | 2 (greater than 80% disease control) | 2 (greater than 80% disease control) |
| CC(C)(C)C1CCC2(CC1)CC(NC1CC1)CO2 (stereo not shown) [Compound 71] | 0 (less than 50% disease control) | 0 (less than 50% disease control) | 2 (greater than 80% disease control) | 0 (less than 50% disease control) | 1 (about 50-80% disease control) | 0 (less than 50% disease control) | 0 (less than 50% disease control) | 0 (less than 50% disease control) | 1 (about 50-80% disease control) | 2 (greater than 80% disease control) | 2 (greater than 80% disease control) |
| CCCCCN(CC)C1COC2(CCC(C(C)(C)C)CC2)C1 (stereo not shown) [Compound 72] | 0 (less than 50% disease control) | 0 (less than 50% disease control) | 0 (less than 50% disease control) | 0 (less than 50% disease control) | 1 (about 50-80% disease control) | 0 (less than 50% disease control) | 0 (less than 50% disease control) | 0 (less than 50% disease control) | 0 (less than 50% disease control) | 2 (greater than 80% disease control) | 2 (greater than 80% disease control) |
| CCCCCN(CCC)C1COC2(CCC(C(C)(C)C)CC2)C1 (stereo not shown) [Compound 73] | 0 (less than 50% disease control) | 0 (less than 50% disease control) | 0 (less than 50% disease control) | 0 (less than 50% disease control) | 0 (less than 50% disease control) | 0 (less than 50% disease control) | 1 (about 50-80% disease control) | 0 (less than 50% disease control) | 0 (less than 50% disease control) | 2 (greater than 80% disease control) | 2 (greater than 80% disease control) |
| CCCCCN(CCCC)C1COC2(CCC(C(C)(C)C)CC2)C1 (stereo not shown) [Compound 74] | 0 (less than 50% disease control) | 0 (less than 50% disease control) | 0 (less than 50% disease control) | 0 (less than 50% disease control) | 0 (less than 50% disease control) | 0 (less than 50% disease control) | 0 (less than 50% disease control) | 0 (less than 50% disease control) | 0 (less than 50% disease control) | 2 (greater than 80% disease control) | 2 (greater than 80% disease control) |
| CCCCCN(CC(C)C)C1COC2(CCC(C(C)(C)C)CC2)C1 (stereo not shown) [Compound 75] | 0 (less than 50% disease control) | 0 (less than 50% disease control) | 0 (less than 50% disease control) | 0 (less than 50% disease control) | 0 (less than 50% disease control) | 0 (less than 50% disease control) | 2 (greater than 80% disease control) | 0 (less than 50% disease control) | 0 (less than 50% disease control) | 2 (greater than 80% disease control) | 2 (greater than 80% disease control) |
